We go through five compounds from patent US6784191B2, “Benzamidine derivatives” (Ajinomoto Co., Inc., priority 1999, dated 2004).

In experiment [1] the target is T1, activated human blood coagulation factor X (Homo sapiens, UniProt P00742).
T1 construct: purchased Enzyme Research Co
Description: Determination of activity of inhibiting the activated blood-coagulation factor X (chromogenic substrate, initial rate). In kind it is biochemical. To be noted: negative logarithm of concentration inhibiting 50% of initial rate, tris hydrochloride buffer pH 8.4, room temperature; for IC50: read-out: Activity of inhibiting activated blood coagulation factor X (pIC50) (converted). Here is the method:
Determination of Activity of Inhibiting the Activated Blood-coagulation Factor X
130 μl of 100 mM tris hydrochloride buffer adjusted to pH 8.4 was added to 10 μl of an aqueous solution of a compound to be tested. Then 10 μl of a 0.5 unit/ml solution of activated human blood coagulation factor X (a product of Enzyme Research Co.) in tris hydrochloride buffer of pH 8.4 was added to the resultant mixture. After the incubation at room temperature for 10 minutes, 50 μl of a solution of N-benzoyl-L-isoleucine-L-glutamine-glycine-L-arginine-P-nitroanilide hydrochloride (a product of Peptide Institute Inc.) adjusted to 0.8 mM with tris hydrochloride (pH 8.4) was added thereto. The absorbance was determined and then the initial reaction rate was determined. A control was prepared in the same manner as that described above except that the solution of the compound to be tested was replaced with 10 μl of tris hydrochloride buffer adjusted to pH 8.4. The absorbance was determined with MICROPLATE READER Model 3550-UV (a product of BIO RAD) at a wave length of 405 nm at intervals of 15 seconds for 16 minutes.

The target in experiment [2] is T2, human thrombin (Homo sapiens, UniProt P00734).
T2 construct: human thrombin (a product of SIGMA Co.); purchased SIGMA Co
Description: Determination of thrombin-inhibiting activity (S-2238 chromogenic substrate, initial rate). The experiment is classed as biochemical. Particulars: negative logarithm of concentration inhibiting 50% of initial rate, tris hydrochloride buffer pH 8.4, room temperature; for IC50: read-out: Thrombin-inhibiting activity (pIC50) (converted). Here is the method:
Determination of Thrombin-Inhibiting Activity
130 μl of 100 mM tris hydrochloride buffer adjusted to pH 8.4 was added to 10 μl of an aqueous solution of a test compound. Then 10 μl of a solution of human thrombin (a product of SIGMA Co.) adjusted to 2 units/ml with tris hydrochloride buffer of pH 8.4 was added to the resultant mixture. After the incubation at room temperature for 10 minutes, 50 μl of a solution of D-phenylalanine-L-pipecolyl-L-arginine-P-nitroanilide dihydrochloride (S-2238; a product of Daiichi Kagaku Yakuhin Co.) adjusted to 0.4 mM with tris hydrochloride buffer of pH 8.4 was added thereto. The absorbance was determined and then the initial reaction rate was determined. A control was prepared in the same manner as that described above except that the solution of the compound to be tested was replaced with 10 μl of tris hydrochloride buffer adjusted to pH 8.4. The absorbance was determined with MICROPLATE READER Model 3550-UV (a product of […]) at a wave length of 405 nm at intervals of 15 seconds for 16 minutes.

For experiment [3], the system named is blood plasma (prothrombin time). Briefly: Determination of blood anticoagulating activity by prothrombin time (PT) method. In kind it is biochemical, human. To be noted: blood plasma from healthy people, citrate; Sysmex PT II rabbit brain thromboplastin, 37° C. Here is the method:
Determination of Blood Anticoagulating Activity
The blood anticoagulating activity was determined by a prothrombin time (PT) determination method. The PT was determined as follows: The blood was taken from healthy people. 3.8% aqueous trisodium citrate solution was added to the blood in a volume ratio of 1:10. The blood plasma was separated by the centrifugation. 5 μl of DMSO solution containing a test compound was added to 45 μl of the blood plasma. After the incubation at room temperature for 2 minutes, a test tube containing the blood plasma solution was placed in Sysmex CA-3000 fully automatic blood coagulation determination device (a product of Toa Medical Electronics Co., Ltd.), and incubated at 37° C. for 3 minutes. 100 μl of Sysmex PT II (rabbit brain tissue thromboplastin, 13.2 mM calcium chloride; a product of Toa Medical Electronics Co., Ltd.) was fed into the test tube. PT was automatically determined with the device. A sample containing 5 μl of DMSO in place of the solution of the test compound was used as the control. The negative logarithm (pPT2) of the concentration of the test compound which elongated PT of the control to the twice as long was determined, and employed as the index of the blood anticoagulating activity.

T1 sequence (P00742 235-488 limits assumed): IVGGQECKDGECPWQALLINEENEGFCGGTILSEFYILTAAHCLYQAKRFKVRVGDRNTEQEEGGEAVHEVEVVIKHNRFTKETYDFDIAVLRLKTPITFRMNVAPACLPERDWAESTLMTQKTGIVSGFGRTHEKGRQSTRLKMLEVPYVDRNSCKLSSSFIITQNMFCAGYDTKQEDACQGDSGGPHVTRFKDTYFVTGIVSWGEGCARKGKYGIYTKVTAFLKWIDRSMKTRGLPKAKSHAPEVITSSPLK
T1 sequence (P00742 41-179 partner limits assumed): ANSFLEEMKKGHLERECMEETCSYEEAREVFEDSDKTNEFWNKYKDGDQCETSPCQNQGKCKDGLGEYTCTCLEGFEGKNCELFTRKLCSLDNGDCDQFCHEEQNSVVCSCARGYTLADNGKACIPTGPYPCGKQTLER

Consider `N=C(N)c1ccc(CCP(=O)(O)O)c(OCCNC(=O)C2CCN(c3ccncc3)CC2)c1` [Compd. of Ex. 1, [2-(4-Amidino-2-[2-[(1-(1-pyridine-4-yl)piperidine-4-carbonyl)amino]ethoxy]phenyl)ethyl]phosphoric acid bistrifluoroacetate], for which the IC50 in experiment [1] was 3.16 nM. Also, in experiment [2], the “Thrombin-inhibiting activity (pIC50)” value is <3.5 and the IC50 was > 316000 nM. Besides, the “pPT2 (negative logarithm of the concentration which elongated PT of the control to twice as long)” value in experiment [3] is recorded as 6.8.
Consider `CC(=N)N1CCC(Oc2ccc(C(=O)NCCOc3cc(C(=N)N)ccc3CCP(=O)(O)O)cc2)CC1` [Compd. of Ex. 2], for which the IC50 was 2.51 nM in experiment [1] and > 100000 nM in experiment [2].
On the same counts, the results for `N=C(N)c1ccc(CCP(=O)(O)O)c(OCCNC(=O)c2ccc(C(=O)N3CCCC3)cc2)c1` [Compd. of Ex. 3, [2-(4-Amidino-2-[2-[4-(1-pyrrolidinecarbamoyl)benzoylamino]ethoxy]phenyl)ethyl]phosphoric acid mono-trifluoroacetate] are 2.51 nM and 39800 nM.
For the compound `N=C(N)c1ccc(CCP(=O)(O)O)c(OC[C@H](CCC(=O)O)NC(=O)C2CCN(c3ccncc3)CC2)c1.O=C(O)C(F)(F)F.O=C(O)C(F)(F)F` [Compd. of Ex. 4, (4S)-5-(5-amidino-2-(2-phosphorylethyl)phenoxy)-4-((1-(1-pyridine-4-yl)piperidine-4-carbonyl)-amino)pentanoic acid bistrifluoroacetate], in experiment [1], the “Activity of inhibiting activated blood coagulation factor X (pIC50)” value is reported as 8.7. For the same compound, in experiment [2], the “Thrombin-inhibiting activity (pIC50)” value is given as <4.0.
As for `N/C(=N/O)c1ccc(CCP(=O)(O)O)c(OCCNC(=O)c2ccc(C(=O)N3CCCC3)cc2)c1` [Compd. of Ex. 6, [2-(4-Hydroxylamidino-2-[2-[4-(1-pyrrolidinecarbamoyl)benzoylamino]ethoxy]phenyl)ethyl]phosphoric acid monotrifluoroacetate], the results for the IC50 in experiment [1] and in experiment [2] were 79.4 nM and > 100000 nM, respectively.
